The subject of the series is rodent lifetime carcinogenesis bioassay, tumor incidence TD50. Put plainly: chronic cancer bioassays in animals – CPDB, compiled studies (AID 1745844).

Here are results for 5 compounds from PubChem BioAssay AID1745844 (Carcinogenic Potency Database (CPDB), 2022).

Structures are written as SMILES. Activity calls are given as the source filed them. No rule for the calls is given here.

One may read the TD50 as the dose at which the toxic effect under study appears in half of the subjects. In the case of `O=C1OC2(c3ccccc31)c1cc(I)c(O)c(I)c1Oc1c2cc(I)c(O)c1I`, the carcinogen call runs as follows: (mouse, strain Charles River CD1, females, in feed, site: any site (literature study), lesion: benign tumor, dosed 104 weeks, study length 104 weeks) “negative (inactive)”; (mouse, strain Charles River CD1, females, in feed, site: any site (literature study), lesion: malignant tumor, dosed 104 weeks, study length 104 weeks) “negative (inactive)”; (mouse, strain Charles River CD1, females, in feed, site: any site (literature study), lesion: several types, types named in the paper, dosed 104 weeks, study length 104 weeks) “negative (inactive)”; (rat, strain Osborne-Mendel, both sexes, by gavage, site: any site (literature study), lesion: malignant tumor, dosed 85 weeks, study length 104 weeks) “negative (inactive)”; (rat, strain Osborne-Mendel, both sexes, by gavage, site: liver, lesion: one or several types, types not named, dosed 85 weeks, study length 104 weeks) “negative (inactive)”; (rat, strain Osborne-Mendel, females, in feed, site: any site (literature study), lesion: several types, types named in the paper, dosed 104 weeks, study length 104 weeks) “negative (inactive)”. In addition, the carcinogen call is “negative (inactive)” (rat, strain Slc-Wistar, females, in feed, site: any site (literature study), lesion: several types, types named in the paper, dosed 52 weeks, study length 52 weeks); “negative (inactive)” (rat, strain Slc-Wistar, females, in feed, site: liver, lesion: one or several types, types not named, dosed 52 weeks, study length 52 weeks); “negative (inactive)” (rat, strain Slc-Wistar, males, in feed, site: any site (literature study), lesion: several types, types named in the paper, dosed 52 weeks, study length 52 weeks); “negative (inactive)” (rat, strain Slc-Wistar, males, in feed, site: liver, lesion: one or several types, types not named, dosed 52 weeks, study length 52 weeks); “negative (inactive)” (rat, strain Sprague-Dawley, females, in feed, site: any site (literature study), lesion: one or several types, types not named, dosed 52 weeks, study length 52 weeks); “negative (inactive)” (rat, strain Sprague-Dawley, females, in feed, site: liver, lesion: one or several types, types not named, dosed 52 weeks, study length 52 weeks). Also, the TD50 (mouse, strain Charles River CD1, males, in feed, site: all sites, lesion: lymphocytic lymphoma, dosed 104 weeks, study length 104 weeks) was 3140 mg/kg/day (inactive); the TD50 (mouse, strain Charles River CD1, males, in feed, site: any site (literature study), lesion: benign tumor, dosed 104 weeks, study length 104 weeks) is 25900 mg/kg/day (inactive); the TD50 (mouse, strain Charles River CD1, males, in feed, site: any site (literature study), lesion: malignant tumor, dosed 104 weeks, study length 104 weeks) was 87600 mg/kg/day (inactive); the TD50 (mouse, strain Charles River CD1, males, in feed, site: any site (literature study), lesion: several types, types named in the paper, dosed 104 weeks, study length 104 weeks) amounted to 17000 mg/kg/day; the TD50 (rat, strain Osborne-Mendel, both sexes, by gavage, site: all sites, lesion: lymphosarcoma, dosed 85 weeks, study length 104 weeks) is 122 mg/kg/day (inactive); the TD50 (rat, strain Osborne-Mendel, both sexes, in feed, site: any site (literature study), lesion: malignant tumor, dosed 86 weeks, study length 104 weeks) was 14100 mg/kg/day (inactive). Further, the TD50 is, setting by setting: (rat, strain Osborne-Mendel, both sexes, in feed, site: liver, lesion: hepatoma, dosed 86 weeks, study length 104 weeks) 84900 mg/kg/day (inactive); (rat, strain Osborne-Mendel, males, in feed, site: any site (literature study), lesion: several types, types named in the paper, dosed 104 weeks, study length 104 weeks) 4810 mg/kg/day (inactive).

In the case of `CCCCCCCCS(=O)C(C)Cc1ccc2c(c1)OCO2` (stereo not drawn), the TD50 is, setting by setting: (mouse, strain B6AKF1, males, oral dosing, site: liver, lesion: hepatoma, dosed 76 weeks, study length 76 weeks) 88.2 mg/kg/day; (mouse, strain B6C3F1, females, in feed, site: liver, lesion: hepatocellular adenoma + hepatocellular carcinoma + neoplastic nodule, dosed 104 weeks, study length 104 weeks) 725 mg/kg/day; (mouse, strain B6C3F1, females, oral dosing, site: any site (literature study), lesion: several types, types named in the paper, dosed 76 weeks, study length 76 weeks) 100 mg/kg/day; (mouse, strain B6C3F1, males, in feed, site: any site (literature study), lesion: several types, types named in the paper, dosed 104 weeks, study length 104 weeks) 423 mg/kg/day; (mouse, strain B6C3F1, males, in feed, site: liver, lesion: hepatocellular adenoma + hepatocellular carcinoma + neoplastic nodule, dosed 104 weeks, study length 104 weeks) 62.2 mg/kg/day; (mouse, strain B6C3F1, males, in feed, site: liver, lesion: hepatocellular carcinoma, dosed 104 weeks, study length 104 weeks) 62.2 mg/kg/day. Besides, the TD50 is 9.1 mg/kg/day (mouse, strain B6C3F1, males, oral dosing, site: all sites, lesion: reticulum-cell sarcoma, dosed 76 weeks, study length 76 weeks); 7.72 mg/kg/day (mouse, strain B6C3F1, males, oral dosing, site: any site (literature study), lesion: several types, types named in the paper, dosed 76 weeks, study length 76 weeks); 45.4 mg/kg/day (mouse, strain B6C3F1, males, oral dosing, site: liver, lesion: hepatoma, dosed 76 weeks, study length 76 weeks); 2300 mg/kg/day (inactive) (rat, strain Fischer 344, females, in feed, site: any site (literature study), lesion: several types, types named in the paper, dosed 105 weeks, study length 105 weeks); 2650 mg/kg/day (rat, strain Fischer 344, males, in feed, site: liver, lesion: hepatocellular adenoma + hepatocellular carcinoma + neoplastic nodule, dosed 105 weeks, study length 105 weeks). For the same compound, the carcinogen call runs as follows: (mouse, strain B6C3F1, females, in feed, site: any site (literature study), lesion: several types, types named in the paper, dosed 104 weeks, study length 104 weeks) “negative (inactive)”; (rat, strain Fischer 344, males, in feed, site: any site (literature study), lesion: several types, types named in the paper, dosed 105 weeks, study length 105 weeks) “negative (inactive)”.

Consider `CC`, for which the carcinogen call was “negative (inactive)” (mouse, strain B6C3F1, females, in feed, site: any site (literature study), lesion: several types, types named in the paper, dosed 103 weeks, study length 105 weeks); “negative (inactive)” (mouse, strain B6C3F1, females, in feed, site: liver, lesion: several types, types named in the paper, dosed 96 weeks, study length 106 weeks); “negative (inactive)” (mouse, strain B6C3F1, females, in feed, site: lung, lesion: several types, types named in the paper, dosed 96 weeks, study length 106 weeks); “negative (inactive)” (mouse, strain B6C3F1, males, in feed, site: liver, lesion: several types, types named in the paper, dosed 96 weeks, study length 106 weeks); “negative (inactive)” (mouse, strain B6C3F1, males, in feed, site: lung, lesion: several types, types named in the paper, dosed 96 weeks, study length 106 weeks). Also, the TD50 by setting is: (mouse, strain B6C3F1, females, in feed, site: forestomach, lesion: several types, types named in the paper, dosed 96 weeks, study length 106 weeks) 111000 mg/kg/day (inactive); (mouse, strain B6C3F1, females, in feed, site: liver, lesion: hepatocellular adenoma + hepatocellular carcinoma + neoplastic nodule, dosed 103 weeks, study length 105 weeks) 31100 mg/kg/day; (mouse, strain B6C3F1, females, in feed, site: lung, lesion: alveolar/bronchiolar adenoma + alveolar/bronchiolar carcinoma, dosed 103 weeks, study length 105 weeks) 24700 mg/kg/day; (mouse, strain B6C3F1, males, in feed, site: all sites, lesion: hemangioma, dosed 103 weeks, study length 105 weeks) 80800 mg/kg/day (inactive); (mouse, strain B6C3F1, males, in feed, site: any site (literature study), lesion: several types, types named in the paper, dosed 103 weeks, study length 105 weeks) 46000 mg/kg/day; (mouse, strain B6C3F1, males, in feed, site: forestomach, lesion: squamous-cell papilloma, dosed 96 weeks, study length 106 weeks) 240000 mg/kg/day (inactive). Further, the TD50 was 8310 mg/kg/day (inactive) (rat, strain Fischer 344, females, in feed, site: any site (literature study), lesion: several types, types named in the paper, dosed 103 weeks, study length 105 weeks); 7970 mg/kg/day (inactive) (rat, strain Fischer 344, males, in feed, site: any site (literature study), lesion: several types, types named in the paper, dosed 103 weeks, study length 105 weeks); 33500 mg/kg/day (rat, strain Fischer 344, males, in feed, site: liver, lesion: hepatocellular adenoma + hepatocellular carcinoma + neoplastic nodule, dosed 103 weeks, study length 105 weeks).

As to `ClC(Cl)C(Cl)(Cl)Cl`, the TD50 (mouse, strain B6C3F1, females, by gavage, site: any site (literature study), lesion: several types, types named in the paper, dosed 103 weeks, study length 104 weeks) is 39.5 mg/kg/day; the TD50 (mouse, strain B6C3F1, females, by gavage, site: liver, lesion: hepatocellular adenoma + hepatocellular carcinoma + neoplastic nodule, dosed 103 weeks, study length 104 weeks) stood at 39.8 mg/kg/day; the TD50 (mouse, strain B6C3F1, females, by gavage, site: liver, lesion: hepatocellular adenoma + hepatocellular carcinoma, dosed 103 weeks, study length 104 weeks) was 39.8 mg/kg/day; the TD50 (mouse, strain B6C3F1, females, by gavage, site: liver, lesion: hepatocellular adenoma, dosed 103 weeks, study length 104 weeks) was 153 mg/kg/day; the TD50 (mouse, strain B6C3F1, females, by gavage, site: liver, lesion: hepatocellular carcinoma, dosed 103 weeks, study length 104 weeks) was 66.6 mg/kg/day; the TD50 (mouse, strain B6C3F1, females, by gavage, site: lung, lesion: alveolar/bronchiolar adenoma + alveolar/bronchiolar carcinoma, dosed 103 weeks, study length 104 weeks) is 1030 mg/kg/day. Also, the TD50 by setting is: (mouse, strain B6C3F1, males, by gavage, site: any site (literature study), lesion: several types, types named in the paper, dosed 103 weeks, study length 104 weeks) 85.6 mg/kg/day; (mouse, strain B6C3F1, males, by gavage, site: liver, lesion: hepatocellular adenoma + hepatocellular carcinoma + neoplastic nodule, dosed 103 weeks, study length 104 weeks) 107 mg/kg/day; (mouse, strain B6C3F1, males, by gavage, site: liver, lesion: hepatocellular adenoma + hepatocellular carcinoma, dosed 103 weeks, study length 104 weeks) 107 mg/kg/day; (mouse, strain B6C3F1, males, by gavage, site: liver, lesion: hepatocellular carcinoma, dosed 103 weeks, study length 104 weeks) 102 mg/kg/day; (rat, strain Fischer 344, females, by gavage, site: any site (literature study), lesion: several types, types named in the paper, dosed 103 weeks, study length 104 weeks) 1660 mg/kg/day (inactive); (rat, strain Fischer 344, males, by gavage, site: kidney, lesion: tubular-cell adenoma + tubular-cell adenocarcinoma, dosed 103 weeks, study length 104 weeks) 662 mg/kg/day. The TD50 (rat, strain Fischer 344, males, by gavage, site: kidney, lesion: tubular-cell adenoma, dosed 103 weeks, study length 104 weeks) was 635 mg/kg/day.

For `CC(=O)O[C@]1(C(C)=O)CC[C@H]2[C@@H]3C=C(Cl)C4=CC(=O)CC[C@]4(C)[C@H]3CC[C@@]21C` (tested in a mixture with another compound), the TD50 runs as follows: (mouse, strain (C3H x RIII)F1 (MTV+), males, in feed, site: mammary tissue, wider than the gland, lesion: one or several types, types not named, dosed 104 weeks, study length 104 weeks) 1.76 mg/kg/day; (mouse, strain C3H (MTV+), females, in feed, site: mammary tissue, wider than the gland, lesion: one or several types, types not named, dosed 104 weeks, study length 104 weeks) 5.98 mg/kg/day; (mouse, strain RIII (MTV+), females, in feed, site: mammary tissue, wider than the gland, lesion: one or several types, types not named, dosed 104 weeks, study length 104 weeks) 2.12 mg/kg/day.
